This note sets out measurements from patent publication US9289364B2, “Tyrosinase inhibitors” (Avon Products, Inc., priority 2013, dated 2016).

One assay has as its system Mushroom tyrosinase. The assay is described as follows: Mushroom tyrosinase assay (conversion of L-Tyrosine to DOPAchrome). In kind it is biochemical. Conditions: 25° C., 30 min, absorbance 492 nm. The protocol: Mushroom tyrosinase and L-Tyrosine were obtained from Sigma-Aldrich, Inc. (St. Louis, Mo.). The enzyme activity was measured in buffer containing 100 mM phosphate buffer pH 6.8, 5% absolute ethanol, 2 micrograms/milliliter mushroom tyrosinase, and 0.2 mg/ml L-Tyrosine. The reaction (conversion of L-Tyrosine to DOPAchrome) was conducted in triplicates at 25° C. for 30 min, and absorbance was then measured at 492 nm. Kojic Acid was used as a positive control inhibitor in these assays. Percent change in tyrosinase activity relative to vehicle control was calculated.

The next assay concerns B16 mouse melanoma cells. Briefly: Inhibition of melanin production in B16 melanoma cell assay. In kind it is cell-based. Particulars: 4 days, alpha MSH 2 nanogram/ml, normalized to cell viability (MTT). On the procedure:
The effects of various test compounds on melanin levels were determined by performing assays using B16 melanoma cells. These cells are known to constitutively produce melanin and are a commonly utilized and accepted model system for monitoring the inhibition of melanin synthesis. The B16 mouse melanoma cells were seeded (ATCC, cat. #: CRL-6475) into 96-well tissue culture-treated plates (BD Falcon) and treated with test actives or controls in phenol red free DMEM (Mediatech; cat. #: 17-205-CV) with 2 nanogram/ml of alpha MSH (Fluka; cat #:63605). The cells were examined for their ability to modulate pigment formation. […] Tests were performed in 6 replicates each. Following the treatment period (4 days), the level of pigment produced or melanin synthesized was quantified by reading the absorbance at 540 nm using a standard microplate reader (Tecan Group Ltd.).
After quantifying the amount of melanin, cell viability was determined using the MTT conversion method. The MTT conversion method measures the reduction of the MTT dye from a yellow colored, water-soluble, tetrazolium salt to a bluish-purple colored insoluble formazan precipitate by NAD(P)H-dependent microsomal dehydrogenase enzymes, which only function in viable cells. The intensity of the blue color is indicative of cell viability. After quantifying the amount of melanin pigment produced, the cells were exposed to MTT dye solution (1 mg/ml) for two to three hours. Formazan material was solubilized with reagent alcohol (95% ethanol: 5% isopropanol) and shaken on an orbital shaker for 15-30 minutes. MTT dye uptake and conversion by viable cells were determined by measuring the extracted formazan at 570 nm using a microplate reader. Total pigmentation was calculated, normalized to cell viability values and expressed as the average percent change in melanin activity relative to control of the six experiments performed.

As to `Cc1cc(C)cc(Nc2nc(-c3ccc(O)cc3O)cs2)c1` [AV4662], in the assay on Mushroom tyrosinase (concentration 0.0010%), the “Tyrosinase Inhibition (percent change in tyrosinase activity compared to DMSO vehicle control)” value is listed as −46%. Moreover, in the assay on B16 mouse melanoma cells (concentration 0.0001%), the “B16 Assay Pigmentation Decrease (percent change in melanin compared to DMSO vehicle control)” value is reported as −57%.
Turning to `CN1CCN(c2nc(-c3ccc(O)cc3O)cs2)CC1` [AV5370], the “Tyrosinase Inhibition (percent change in tyrosinase activity compared to DMSO vehicle control)” value in the assay on Mushroom tyrosinase (concentration 0.0010%) was −75%; in the assay with Mushroom tyrosinase (concentration 0.0100%) it was −59%. For the same compound, the figures for the “B16 Assay Pigmentation Decrease (percent change in melanin compared to DMSO vehicle control)” value in the assay on B16 mouse melanoma cells (concentration 0.0001%) and in the assay with B16 mouse melanoma cells (concentration 0.0010%) were −10% and −77%, respectively.
